Assay results published in patent US10246411B2, “(Z)-3,4,5-trimethoxystyrylbenzenesulfonamides as potential anticancer agents” (COUNCIL OF SCIENTIFIC & INDUSTRIAL RESEARCH, priority 2014, dated 2019).
Read-outs that look alike come from different tables or passages of the source.

Experiments:
[1] = tested on: M14; experiment: In vitro cytotoxicity (NCI protocol, SRB), M14; settings: Homo sapiens, M14, 48 h
[2] = tested on: SN12C; experiment: In vitro cytotoxicity (NCI protocol, SRB), SN12C; settings: Homo sapiens, 48 h
[3] = tested on: MCF7; experiment: In vitro cytotoxicity (NCI protocol, SRB), MCF7; settings: Homo sapiens, MCF7, 48 h
[4] = tested on: NCI-H23; experiment: In vitro cytotoxicity (NCI protocol, SRB), NCI-H23; settings: Homo sapiens, NCI-H23, 48 h
[5] = tested on: NCI-H460; experiment: In vitro cytotoxicity (NCI protocol, SRB), NCI-H460; settings: Homo sapiens, NCI-H460, 48 h
[6] = tested on: LOX IMVI; experiment: In vitro cytotoxicity (NCI protocol, SRB), LOX IMVI; settings: Homo sapiens, 48 h
[7] = tested on: KM12; experiment: In vitro cytotoxicity (NCI protocol, SRB), KM12; settings: Homo sapiens, KM12, 48 h
[8] = tested on: human tumor cell lines; experiment: In vitro cytotoxicity (NCI protocol, SRB), whole panel / mean graph midpoints; assay type: cell-based; settings: for GI50: Homo sapiens; for Log10GI50 mean graph mid point (MG_MID) / Log10LC50 mean graph mid point (MG_MID) / Log10TGI mean graph mid point (MG_MID): mean over human tumor cell lines
Excerpt: The mean graph midpoint values of Log10 TGI and Log10 LC50 as well as Log10 GI50 for compounds 17a, 17c, 13a, 13c and 12a is listed in Table-2. […] The mean graph midpoints of Log10 TGI and Log10 LC50 have shown similar pattern to the log10 GI50 mean graph mid points.

[9] = tested on: MDA-MB-231/ATCC; experiment: In vitro cytotoxicity (NCI protocol, SRB), MDA-MB-231/ATCC; settings: Homo sapiens, MDA-MB-231, 48 h
[10] = tested on: UO-31; experiment: In vitro cytotoxicity (NCI protocol, SRB), UO-31; settings: Homo sapiens, UO-31, 48 h
[11] = tested on: IGROV1; experiment: In vitro cytotoxicity (NCI protocol, SRB), IGROV1; settings: Homo sapiens, IGROV-1, 48 h
[12] = tested on: COLO-205; experiment: In vitro cytotoxicity (NCI protocol, SRB), COLO-205; settings: Homo sapiens, COLO 205, 48 h
[13] = tested on: SNB -75; experiment: In vitro cytotoxicity (NCI protocol, SRB), SNB -75; settings: Homo sapiens, SNB-75, 48 h
[14] = tested on: NCI-H226; experiment: In vitro cytotoxicity (NCI protocol, SRB), NCI-H226; settings: Homo sapiens, NCI-H226, 48 h
[15] = tested on: NCIH322M; experiment: In vitro cytotoxicity (NCI protocol, SRB), NCIH322M; settings: Homo sapiens, NCI-H322M, 48 h
[16] = tested on: UACC-257; experiment: In vitro cytotoxicity (NCI protocol, SRB), UACC-257; settings: Homo sapiens, UACC-257, 48 h
[17] = tested on: MDA-MB-435; experiment: In vitro cytotoxicity (NCI protocol, SRB), MDA-MB-435 (breast panel line); settings: Homo sapiens, MDA-MB-435, 48 h
[18] = tested on: NCI/ADR-RES; experiment: In vitro cytotoxicity (NCI protocol, SRB), NCI/ADR-RES; settings: Homo sapiens, 48 h
[19] = tested on: CCRF-CEM; experiment: In vitro cytotoxicity (NCI protocol, SRB), CCRF-CEM; settings: Homo sapiens, 48 h
[20] = tested on: ACHN; experiment: In vitro cytotoxicity (NCI protocol, SRB), ACHN; settings: Homo sapiens, 48 h
[21] = tested on: NCI-H522; experiment: In vitro cytotoxicity (NCI protocol, SRB), NCI-H522; settings: Homo sapiens, NCI-H522, 48 h
[22] = tested on: CAKI-1; experiment: In vitro cytotoxicity (NCI protocol, SRB), CAKI-1; settings: Homo sapiens, CAKI-1, 48 h
[23] = tested on: BT-549; experiment: In vitro cytotoxicity (NCI protocol, SRB), BT-549; settings: Homo sapiens, BT-549, 48 h
[24] = tested on: U251; experiment: In vitro cytotoxicity (NCI protocol, SRB), U251; settings: Homo sapiens, U-251, 48 h
[25] = tested on: K-562; experiment: In vitro cytotoxicity (NCI protocol, SRB), K-562; settings: Homo sapiens, K562, 48 h
[26] = tested on: HCC-2998; experiment: In vitro cytotoxicity (NCI protocol, SRB), HCC-2998; settings: Homo sapiens, HCC 2998, 48 h
[27] = tested on: SK-MEL-2; experiment: In vitro cytotoxicity (NCI protocol, SRB), SK-MEL-2; settings: Homo sapiens, SK-MEL-2, 48 h
[28] = tested on: T-47D; experiment: In vitro cytotoxicity (NCI protocol, SRB), T-47D; settings: Homo sapiens, T47D, 48 h
[29] = against all the cancer cell lines, read-out: GI50 values range
[30] = against fifty eight cell lines in nine cancer cell panels, read-out: GI50 values
[31] = against almost 50 above cancer cell lines

Row | Compound | GI50 [1] | GI50 [2] | GI50 [3] | GI50 [4] | GI50 [5] | GI50 [6] | GI50 [7] | GI50 [8, 30] | Log10GI50 mean graph mid point (MG_MID) [8] | Log10LC50 mean graph mid point (MG_MID) [8] | Log10TGI mean graph mid point (MG_MID) [8] | GI50 [9] | GI50 [10] | GI50 [11] | GI50 [12] | GI50 [13] | GI50 [14] | GI50 [15] | GI50 [17] | GI50 [18] | further results
1 | COc1ccc(S(=O)(=O)Nc2cc(/C=C\c3cc(OC)c(OC)c(OC)c3)ccc2OC)cc1 [12a, (Z)-4-methoxy-N-(2-methoxy-5-(3,4,5-trimethoxystyryl)phenyl)benzenesulfonamide] | 103 nM | 682 nM | 42.6 nM | 480 nM | 178 nM | 272 nM | 73.8 nM | 20 to 50 nM | −6.86 | −4.06 | −4.49 | 399 nM | 131 nM | 166 nM | 38.3 nM | 70.8 nM | 12800 nM | 430 nM | 168 nM | 71.1 nM | GI50 [8, 29]: 18 to 50 nM; cytotoxicity [8, 31]: significant cytotoxicity; GI50 [16]: 2980 nM; GI50 [19]: 176 nM; GI50 [20]: 58.7 nM; GI50 [21]: 20.4 nM; GI50 [22]: 51.5 nM; GI50 [23]: 197 nM; GI50 [24]: 108 nM; GI50 [25]: 53 nM; GI50 [26]: 442 nM; GI50 [27]: 80.3 nM
2 | COc1ccc(/C=C\c2cc(OC)c(OC)c(OC)c2)c(NS(=O)(=O)c2ccc(Cl)cc2)c1O [17c, (Z)-4-chloro-N-(2-hydroxy-3-methoxy-6-(3,4,5-trimethoxystyryl)phenyl)benzenesulfonamide] | 91.3 nM | 708 nM | 38.4 nM | 288 nM | 316 nM | 153 nM | 127 nM | 20 to 50 nM | −6.71 | −4.07 | −4.66 | 206 nM | 73.9 nM | 379 nM | 1740 nM | 33.1 nM | 24900 nM | 485 nM | 36.7 nM | 263 nM | cytotoxicity [8]: significant cytotoxicity; GI50 [8, 29]: 18 to 50 nM; GI50 [16]: 14200 nM; GI50 [19]: 159 nM; GI50 [20]: 83.8 nM; GI50 [21]: 84.8 nM; GI50 [22]: 54.2 nM; GI50 [23]: 353 nM; GI50 [24]: 287 nM; GI50 [25]: 32.3 nM; GI50 [26]: 429 nM; GI50 [27]: 65.9 nM
3 | COc1cc(/C=C\c2cc(OC)c(OC)c(OC)c2)cc(NS(=O)(=O)c2ccc(Cl)cc2)c1OC [13c, (Z)-4-chloro-N-(2,3-dimethoxy-5-(3,4,5-trimethoxystyryl)phenyl)benzenesulfonamide] | 391 nM | 750 nM | 375 nM | 710 nM | 364 nM | 566 nM | 572 nM | 20 to 50 nM | −6.27 | −4.03 | −4.42 | 1160 nM | 696 nM | 914 nM | 252 nM | 227 nM | 13500 nM | 759 nM | 271 nM | 364 nM | cytotoxicity [8, 31]: significant cytotoxicity; GI50 [28]: 381 nM; GI50 [16]: 12500 nM; GI50 [19]: 388 nM; GI50 [20]: 586 nM; GI50 [21]: 209 nM; GI50 [22]: 374 nM; GI50 [23]: 966 nM; GI50 [24]: 461 nM; GI50 [25]: 306 nM; GI50 [26]: 1980 nM; GI50 [27]: 613 nM
4 | COc1ccc(S(=O)(=O)Nc2c(/C=C\c3cc(OC)c(OC)c(OC)c3)ccc(OC)c2O)cc1 [17a, (Z)—N-(2-hydroxy-3-methoxy-6-(3,4,5-trimethoxystyryl)phenyl)-4-methoxybenzenesulfonamide] | 31.3 nM | 86.9 nM | 38 nM | 52 nM | 36.8 nM | 45.5 nM | 35.5 nM | 20 to 50 nM | −7.17 | −4.05 | −4.55 | 50.3 nM | 61.9 nM | 54 nM | 406 nM | 25.5 nM | 4130 nM | 63.3 nM | 43.9 nM | 155 nM | GI50 [8, 29]: 18 to 50 nM; GI50 ([8]; against almost all tumor cell lines, read-out: GI50 values): < 50 nM; cytotoxicity [8, 31]: significant cytotoxicity; GI50 [19]: 30.1 nM; GI50 [20]: 61.3 nM; GI50 [21]: 20.2 nM; GI50 [22]: 51.6 nM; GI50 [23]: 50.1 nM; GI50 [24]: 37.4 nM; GI50 [25]: 28.6 nM; GI50 [26]: 31.6 nM; GI50 [27]: 43.7 nM
